Laboratory results taken from ChEMBL document CHEMBL4387727, “Novel triazine-based pyrimidines suppress glomerular mesangial cells proliferation and matrix protein accumulation through a ROS-dependent mechanism in the diabetic milieu” (2019).
The source made the active and inactive calls. No cut-off for these calls is given here.

Legend:
Assay type in all cases: functional
[1] = Antioxidant activity in serum deprived rat Glomerular mesangial cells assessed as EOH level by measuring EOH/DHE level in presence of 25 mM glucose at 1 uM after 48 hrs by DHE based HPLC analysis (reference value: 654.98 +/- 32.31 nmol/micromol)
[2] = Nephroprotective activity in serum deprived rat Glomerular mesangial cells assessed as fibronectin protein expression in presence of 25 mM glucose at 2.5 uM after 48 hrs by Western blot analysis (reference value: 270.11 +/- 19.17%)
[3] = Nephroprotective activity in serum deprived rat Glomerular mesangial cells assessed as fibronectin protein expression in presence of 25 mM glucose at 0.5 uM after 48 hrs by Western blot analysis (reference value: 270.11 +/- 19.17%)
[4] = Nephroprotective activity in serum deprived rat Glomerular mesangial cells assessed as fibronectin protein expression in presence of 25 mM glucose at 5 uM after 48 hrs by Western blot analysis (reference value: 270.11 +/- 19.17%)
[5] = Antioxidant activity in serum deprived rat Glomerular mesangial cells assessed as EOH level by measuring EOH/DHE level in presence of 25 mM glucose at 2.5 uM after 48 hrs by DHE based HPLC analysis (reference value: 654.98 +/- 32.31 nmol/micromol)
[6] = Antioxidant activity in serum deprived rat Glomerular mesangial cells assessed as EOH level by measuring EOH/DHE level in presence of 25 mM glucose at 0.5 uM after 48 hrs by DHE based HPLC analysis (reference value: 654.98 +/- 32.31 nmol/micromol)
[7] = Antioxidant activity in serum deprived rat Glomerular mesangial cells assessed as EOH level by measuring EOH/DHE level in presence of 25 mM glucose at 5 uM after 48 hrs by DHE based HPLC analysis (reference value: 654.98 +/- 32.31 nmol/micromol)
[8] = Nephroprotective activity in serum deprived rat Glomerular mesangial cells assessed as fibronectin protein expression in presence of 25 mM glucose at 1 uM after 48 hrs by Western blot analysis (reference value: 270.11 +/- 19.17%)
Rattus norvegicus [9] = species on record: Rattus norvegicus; assay: Antioxidant activity in serum deprived rat Glomerular mesangial cells assessed as reduction in NADPH oxidase dependent super oxide generation in presence of 25 mM glucose at 1 uM after 48 hrs by Lucigenin-enhanced chemiluminescence method
Rattus norvegicus [10] = species on record: Rattus norvegicus; assay: Antioxidant activity in serum deprived rat Glomerular mesangial cells assessed as reduction in NADPH oxidase dependent super oxide generation in presence of 25 mM glucose at 0.5 uM after 48 hrs by Lucigenin-enhanced chemiluminescence method
Rattus norvegicus [11] = species on record: Rattus norvegicus; assay: Antiproliferative activity against serum deprived rat Glomerular mesangial cells assessed as reduction in 25 mM glucose-induced cell proliferation at 1 uM after 48 hrs by MTT assay
Rattus norvegicus [12] = species on record: Rattus norvegicus; assay: Antiproliferative activity against serum deprived rat Glomerular mesangial cells assessed as reduction in 25 mM glucose-induced cell proliferation at 0.5 uM after 48 hrs by MTT assay

Row | Structure (SMILES) | Activity [1] | Activity [2] | Activity [3] | Activity [4] | Activity [5] | Activity [6] | Activity [7] | Activity [8] | Activity (Rattus norvegicus [9]) | Activity (Rattus norvegicus [10]) | Activity (Rattus norvegicus [11]) | Activity (Rattus norvegicus [12])
1 | Cc1cn(CCC(=O)NN)c(=O)nc1O | 658.92 nmol/umol | 251.59% | 289.17% | 239.46% | 683.28 nmol/umol | 701.09 nmol/umol | 710.14 nmol/umol | 272.26% | – | – | – | –
2 | O=C(CCn1ccc(=O)[nH]c1=O)NNc1nc(Cl)nc(NNC(=O)CCn2ccc(=O)[nH]c2=O)n1 | 648.96 nmol/umol | 219.47% | 267.45% | 179.47% | 661.09 nmol/umol | 660.36 nmol/umol | 672.32 nmol/umol | 280.24% | – | – | – | –
3 | Cc1cn(CCC(=O)NNc2nc(NNC(=O)CCn3ccc(=O)[nH]c3=O)nc(NNC(=O)CCn3cc(C)c(=O)[nH]c3=O)n2)c(=O)[nH]c1=O | 257.69 nmol/umol | 127.09% | 114.54% | 121.34% | 249.97 nmol/umol | 323.17 nmol/umol | 240.46 nmol/umol | 135.87% | Active | Active | Active | Active
4 | NNC(=O)CCn1ccc(O)nc1=O | 671.47 nmol/umol | 241.91% | 268.71% | 227.83% | 654.48 nmol/umol | 666.94 nmol/umol | 618.26 nmol/umol | 265.72% | – | – | – | –
5 | Cc1cn(CCC(=O)NNc2nc(NNC(=O)CCn3ccc(=O)[nH]c3=O)nc(NNC(=O)CCn3ccc(=O)[nH]c3=O)n2)c(=O)[nH]c1=O | 306.28 nmol/umol | 143.41% | 178.33% | 151.18% | 231.15 nmol/umol | 454.37 nmol/umol | 217.62 nmol/umol | 145.64% | Active | Active | Active | Active
6 | Cc1cn(CCC(=O)NNc2nc(NNC(=O)CCn3cc(C)c(=O)[nH]c3=O)nc(NNC(=O)CCn3cc(C)c(=O)[nH]c3=O)n2)c(=O)[nH]c1=O | 305.77 nmol/umol | 108.35% | 182.76% | 102.99% | 200.36 nmol/umol | 404.34 nmol/umol | 224.71 nmol/umol | 141.91% | Active | Active | Active | Active
7 | O=C(CCn1ccc(=O)[nH]c1=O)NNc1nc(NNC(=O)CCn2ccc(=O)[nH]c2=O)nc(NNC(=O)CCn2ccc(=O)[nH]c2=O)n1 | 274.37 nmol/umol | 142.45% | 191.33% | 121.19% | 198.48 nmol/umol | 359.07 nmol/umol | 210.93 nmol/umol | 167.88% | Active | Active | Active | Active
8 | Cc1cn(CCC(=O)NNc2nc(Cl)nc(NNC(=O)CCn3cc(C)c(=O)[nH]c3=O)n2)c(=O)[nH]c1=O | 671.14 nmol/umol | 189.91% | 231.19% | 170.26% | 512.62 nmol/umol | 651.54 nmol/umol | 413.96 nmol/umol | 200.79% | – | – | – | –
